Assay results published in the supplement of paper PMC10307832.

Each cell line was assayed with COc1cccc2cc(-c3nc([C@H]4CC[C@H](C(=O)O)CC4)n4ncnc(N)c34)[nH]c12 [OSI-027] + CC(=O)c1c(C)c2cnc(Nc3ccc(N4CCNCC4)cn3)nc2n(C2CCCC2)c1=O [Palbociclib] (partner 0.5 µM) (assay: relative viability (nuclei count vs DMSO), 5 days (fraction); higher = more cells survive). Conditions: first compound 0.01 µM.
Outline: (§1)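 Lung cancer cell lines, seeded in 1536-well plates, were treated the following day by pin tool with a single drug or with five library-drug doses (not always all listed) in √10 steps on top of a fixed anchor-drug dose. Cells were fixed and nuclei stained in one step after 5 days, and nuclei were counted. Relative viability is the nuclei count for treated wells divided by that for vehicle wells, reported as medians of duplicate plates.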

Cell Line	relative viability
NCI-H647	0.389
HARA	0.307
NCI-H3122	0.167
CAL-12T	0.427
COR-L 105	0.393
LCLC-97TM1	0.236
NCI-H520	0.204
NCI-H2228	0.65
NCI-H23	0.439
HCC-827	0.507
NCI-H2347	0.41
LXF-289	0.605

Same assay, conditions: first compound 0.03162 µM

Cell Line	relative viability
HCC-366	0.348
NCI-H1915	0.523
NCI-H838	0.195
A-427	0.516
NCI-H2009	0.237
EKVX	0.44
NCI-H2087	0.169
NCI-H1734	0.369
LU99A	0.379
NCI-H460	0.186
NCI-H2170	0.382
SK-LU-1	0.381
COR-L23	0.3
HCC-15	0.67
NCI-H1944	0.3
EMC-BAC-2	0.499
NCI-H1792	0.451

Cell Line	relative viability
NCI-H1395	0.609
LC-2-ad	0.46
NCI-H2085	0.515
NCI-H727	0.65
NCI-H647	0.371
HARA	0.272
NCI-H3122	0.177
CAL-12T	0.432
COR-L 105	0.406
LCLC-97TM1	0.205
NCI-H520	0.18
NCI-H2228	0.638
NCI-H23	0.552
HCC-827	0.414
NCI-H2347	0.386
LXF-289	0.677

Same assay, conditions: first compound 0.1 µM

Cell Line	relative viability
HCC-366	0.412
NCI-H1915	0.429
NCI-H838	0.191
A-427	0.453
NCI-H2009	0.171
EKVX	0.34
NCI-H2087	0.207
NCI-H1734	0.356
LU99A	0.304
NCI-H460	0.186
NCI-H2170	0.329
SK-LU-1	0.394
COR-L23	0.295
HCC-15	0.717
NCI-H1944	0.327
EMC-BAC-2	0.487
NCI-H1792	0.623

Cell Line	relative viability
NCI-H1395	0.529
LC-2-ad	0.516
NCI-H2085	0.458
NCI-H727	0.752
NCI-H647	0.351
HARA	0.196
NCI-H3122	0.175
CAL-12T	0.28
COR-L 105	0.369
LCLC-97TM1	0.217
NCI-H520	0.22
NCI-H2228	0.849
NCI-H23	0.414
HCC-827	0.507
NCI-H2347	0.392
LXF-289	0.66

Same assay, conditions: first compound 0.3162 µM

Cell Line	relative viability
HCC-366	0.309
NCI-H1915	0.388
NCI-H838	0.165
A-427	0.414
NCI-H2009	0.173
EKVX	0.263
NCI-H2087	0.195
NCI-H1734	0.311
LU99A	0.217
NCI-H460	0.158
NCI-H2170	0.302
SK-LU-1	0.302
COR-L23	0.255
HCC-15	0.591
NCI-H1944	0.234
EMC-BAC-2	0.398
NCI-H1792	0.604

Cell Line	relative viability
NCI-H1395	0.45
LC-2-ad	0.528
NCI-H2085	0.428
NCI-H727	0.622
NCI-H647	0.354
HARA	0.195
NCI-H3122	0.168
CAL-12T	0.313
COR-L 105	0.389
LCLC-97TM1	0.139
NCI-H520	0.163
NCI-H2228	0.75
NCI-H23	0.25
HCC-827	0.299
NCI-H2347	0.358
LXF-289	0.599

Same assay, conditions: first compound 1 µM

Cell Line	relative viability
HCC-366	0.1
NCI-H1915	0.268
NCI-H838	0.168
A-427	0.386
NCI-H2009	0.232
EKVX	0.22
NCI-H2087	0.142
NCI-H1734	0.255
LU99A	0.237
NCI-H460	0.092
NCI-H2170	0.201
SK-LU-1	0.268
COR-L23	0.171
HCC-15	0.402
NCI-H1944	0.205
EMC-BAC-2	0.348
NCI-H1792	0.308

Cell Line	relative viability
NCI-H1395	0.505
LC-2-ad	0.344
NCI-H2085	0.446
NCI-H727	0.625
NCI-H647	0.155
HARA	0.165
NCI-H3122	0.152
CAL-12T	0.22
COR-L 105	0.423
LCLC-97TM1	0.239
NCI-H520	0.145
NCI-H2228	0.383
NCI-H23	0.237
HCC-827	0.207
NCI-H2347	0.392
LXF-289	0.345

Each cell line was assayed with Cc1nc(NC(=O)N2CCC[C@H]2C(N)=O)sc1-c1ccnc(C(C)(C)C(F)(F)F)c1 [Alpelisib] + O=C(c1cc(Cc2n[nH]c(=O)c3ccccc23)ccc1F)N1CCN(C(=O)C2CC2)CC1 [Olaparib] (partner 8 µM) in the same assay as above. Conditions: first compound 0.04 µM.
Outline: as §1

Cell Line	relative viability
HCC-366	0.338
NCI-H1915	0.264
NCI-H838	0.774
A-427	0.721
NCI-H2009	0.756
EKVX	0.856
NCI-H2087	0.557
NCI-H1734	0.584
LU99A	0.245
NCI-H460	0.446
NCI-H2170	0.519
SK-LU-1	0.491
COR-L23	0.327
HCC-15	0.685
NCI-H1944	0.41
EMC-BAC-2	0.492
NCI-H1792	0.48

Cell Line	relative viability
NCI-H1395	0.45
LC-2-ad	0.718
NCI-H2085	0.754
NCI-H727	0.816
NCI-H647	0.534
HARA	0.696
NCI-H3122	0.644
CAL-12T	0.771
COR-L 105	0.706
LCLC-97TM1	0.379
NCI-H520	0.285
NCI-H2228	0.889
NCI-H23	0.254
HCC-827	0.601
NCI-H2347	0.632
LXF-289	1.04

Same assay, conditions: first compound 0.1265 µM

Cell Line	relative viability
HCC-366	0.287
NCI-H1915	0.288
NCI-H838	0.754
A-427	0.724
NCI-H2009	0.659
EKVX	0.897
NCI-H2087	0.514
NCI-H1734	0.328
LU99A	0.282
NCI-H460	0.501
NCI-H2170	0.586
SK-LU-1	0.472
COR-L23	0.338
HCC-15	0.765
NCI-H1944	0.431
EMC-BAC-2	0.382
NCI-H1792	0.528

Cell Line	relative viability
NCI-H1395	0.511
LC-2-ad	0.379
NCI-H2085	0.75
NCI-H727	0.708
NCI-H647	0.485
HARA	0.64
NCI-H3122	0.657
CAL-12T	0.774
COR-L 105	0.646
LCLC-97TM1	0.396
NCI-H520	0.298
NCI-H2228	0.587
NCI-H23	0.269
HCC-827	0.678
NCI-H2347	0.61
LXF-289	1.04

Same assay, conditions: first compound 0.4 µM

Cell Line	relative viability
HCC-366	0.374
NCI-H1915	0.303
NCI-H838	0.744
A-427	0.762
NCI-H2009	0.674
EKVX	1.1
NCI-H2087	0.653
NCI-H1734	0.61
LU99A	0.268
NCI-H460	0.496
NCI-H2170	0.596
SK-LU-1	0.532
COR-L23	0.573
HCC-15	0.738
NCI-H1944	0.427
EMC-BAC-2	0.498
NCI-H1792	0.68

Cell Line	relative viability
NCI-H1395	0.472
LC-2-ad	0.78
NCI-H2085	0.794
NCI-H727	0.768
NCI-H647	0.569
HARA	0.742
NCI-H3122	0.668
CAL-12T	0.767
COR-L 105	0.755
LCLC-97TM1	0.304
NCI-H520	0.331
NCI-H2228	0.621
NCI-H23	0.321
HCC-827	0.768
NCI-H2347	0.89
LXF-289	1.12

Same assay, conditions: first compound 1.265 µM

Cell Line	relative viability
HCC-366	0.217
NCI-H1915	0.236
NCI-H838	0.637
A-427	0.609
NCI-H2009	0.647
EKVX	0.753
NCI-H2087	0.483
NCI-H1734	0.425
LU99A	0.287
NCI-H460	0.42
NCI-H2170	0.481
SK-LU-1	0.378
COR-L23	0.294
HCC-15	0.616
NCI-H1944	0.341
EMC-BAC-2	0.347
NCI-H1792	0.36

Cell Line	relative viability
NCI-H1395	0.408
LC-2-ad	0.733
NCI-H2085	0.733
NCI-H727	0.754
NCI-H647	0.487
HARA	0.453
NCI-H3122	0.647
CAL-12T	0.726
COR-L 105	0.686
LCLC-97TM1	0.197
NCI-H520	0.231
NCI-H2228	0.341
NCI-H23	0.232
HCC-827	0.499
NCI-H2347	0.481
LXF-289	0.997

Same assay, conditions: first compound 4 µM

Cell Line	relative viability
HCC-366	0.16
NCI-H1915	0.235
NCI-H838	0.613
A-427	0.613
NCI-H2009	0.599
EKVX	0.512
NCI-H2087	0.444
NCI-H1734	0.35
LU99A	0.232
NCI-H460	0.375
NCI-H2170	0.466
SK-LU-1	0.41
COR-L23	0.253
HCC-15	0.509
NCI-H1944	0.337
EMC-BAC-2	0.318
NCI-H1792	0.205

Cell Line	relative viability
NCI-H1395	0.451
LC-2-ad	0.651
NCI-H2085	0.711
NCI-H727	0.448
NCI-H647	0.436
HARA	0.452
NCI-H3122	0.508
CAL-12T	0.745
COR-L 105	0.642
LCLC-97TM1	0.116
NCI-H520	0.272
NCI-H2228	0.326
NCI-H23	0.289
HCC-827	0.503
NCI-H2347	0.515
LXF-289	0.942
